Measurements taken from ChEMBL document CHEMBL2439971, “Design, synthesis and antiproliferative evaluation of fluorenone analogs with DNA topoisomerase I inhibitory properties” (Bioorg Med Chem, 2013).

Assays:
[1] = system: OVCAR-5; assay: Cytotoxicity against human OVCAR5 cells at 10 uM after 48 hrs by sulforhodamine B assay relative to control; format: functional
[2] = system: SNB-19; assay: Cytotoxicity against human SNB19 cells after 48 hrs by sulforhodamine B assay; format: functional; details: SNB-19, 48 h
[3] = system: HOP-92; assay: Cytotoxicity against human HOP92 cells at 10 uM after 48 hrs by sulforhodamine B assay relative to control; format: functional
[4] = system: HCT-116; assay: Cytotoxicity against human HCT116 cells after 48 hrs by sulforhodamine B assay; format: functional; details: HCT-116, 48 h
[5] = system: M14; assay: Cytotoxicity against human M14 cells at 10 uM after 48 hrs by sulforhodamine B assay relative to control; format: functional
[6] = system: M14; assay: Cytotoxicity against human M14 cells after 48 hrs by sulforhodamine B assay; format: functional; details: M14, 48 h
[7] = system: RXF 393; assay: Cytotoxicity against human RXF393 cells at 10 uM after 48 hrs by sulforhodamine B assay relative to control; format: functional
[8] = system: 786-0; assay: Cytotoxicity against human 786-0 cells at 10 uM after 48 hrs by sulforhodamine B assay relative to control; format: functional
[9] = system: TK-10; assay: Cytotoxicity against human TK10 cells after 48 hrs by sulforhodamine B assay; format: functional; details: TK-10, 48 h
[10] = system: MDA-MB-231; assay: Cytotoxicity against human MDA-MB-231 cells after 48 hrs by sulforhodamine B assay; format: functional; details: MDA-MB-231, 48 h
[11] = system: NCI-H226; assay: Cytotoxicity against human NCI-H226 cells at 10 uM after 48 hrs by sulforhodamine B assay relative to control; format: functional
[12] = system: OVCAR-5; assay: Cytotoxicity against human OVCAR5 cells after 48 hrs by sulforhodamine B assay; format: functional; details: OVCAR-5, 48 h
[13] = system: HCC 2998; assay: Cytotoxicity against human HCC2998 cells after 48 hrs by sulforhodamine B assay; format: functional; details: HCC 2998, 48 h
[14] = system: SW-620; assay: Cytotoxicity against human SW620 cells at 10 uM after 48 hrs by sulforhodamine B assay relative to control; format: functional
[15] = biological target: DNA topoisomerase 1 (Homo sapiens) (UniProt P11387); assay: Inhibition of recombinant human DNA topoisomerase 1-mediated relaxation of supercoiled pHOT DNA after 45 mins by agarose gel electrophoresis
[16] = system: MCF7; assay: Cytotoxicity against human MCF7 cells at 10 uM after 48 hrs by sulforhodamine B assay relative to control; format: functional
[17] = system: COLO 205; assay: Cytotoxicity against human COLO205 cells at 10 uM after 48 hrs by sulforhodamine B assay relative to control; format: functional
[18] = system: K562; assay: Cytotoxicity against human K562 cells after 48 hrs by sulforhodamine B assay; format: functional; details: K562, 48 h
[19] = system: COLO 205; assay: Cytotoxicity against human COLO205 cells after 48 hrs by sulforhodamine B assay; format: functional; details: COLO 205, 48 h
[20] = system: SF-539; assay: Cytotoxicity against human SF539 cells after 48 hrs by sulforhodamine B assay; format: functional; details: SF-539, 48 h
[21] = system: HOP-62; assay: Cytotoxicity against human HOP62 cells at 10 uM after 48 hrs by sulforhodamine B assay relative to control; format: functional
[22] = system: SK-MEL-2; assay: Cytotoxicity against human SK-MEL-2 cells after 48 hrs by sulforhodamine B assay; format: functional; details: SK-MEL-2, 48 h
[23] = system: UACC-62; assay: Cytotoxicity against human UACC62 cells at 10 uM after 48 hrs by sulforhodamine B assay relative to control; format: functional
[24] = system: HT-29; assay: Cytotoxicity against human HT-29 cells at 10 uM after 48 hrs by sulforhodamine B assay relative to control; format: functional
[25] = system: HL-60(TB); assay: Cytotoxicity against human HL-60(TB) cells at 10 uM after 48 hrs by sulforhodamine B assay relative to control; format: functional
[26] = system: LOX IMVI; assay: Cytotoxicity against human LOXIMVI cells after 48 hrs by sulforhodamine B assay; format: functional
[27] = system: MDA-MB-231; assay: Cytotoxicity against human MDA-MB-231 cells at 10 uM after 48 hrs by sulforhodamine B assay relative to control; format: functional
[28] = system: SF-539; assay: Cytotoxicity against human SF539 cells at 10 uM after 48 hrs by sulforhodamine B assay relative to control; format: functional
[29] = system: DU-145; assay: Cytotoxicity against human DU145 cells after 48 hrs by sulforhodamine B assay; format: functional; details: DU-145, 48 h
[30] = system: UACC-257; assay: Cytotoxicity against human UACC257 cells after 48 hrs by sulforhodamine B assay; format: functional; details: UACC-257, 48 h
[31] = system: OVCAR-3; assay: Cytotoxicity against human OVCAR3 cells at 10 uM after 48 hrs by sulforhodamine B assay relative to control; format: functional
[32] = system: SF-295; assay: Cytotoxicity against human SF295 cells at 10 uM after 48 hrs by sulforhodamine B assay relative to control; format: functional
[33] = system: SN12C; assay: Cytotoxicity against human SN12C cells at 10 uM after 48 hrs by sulforhodamine B assay relative to control; format: functional
[34] = system: A549; assay: Cytotoxicity against human A549 cells at 10 uM after 48 hrs by sulforhodamine B assay relative to control; format: functional
[35] = system: 786-0; assay: Cytotoxicity against human 786-0 cells after 48 hrs by sulforhodamine B assay; format: functional; details: 786-0, 48 h
[36] = system: SK-MEL-5; assay: Cytotoxicity against human SK-MEL-5 cells at 10 uM after 48 hrs by sulforhodamine B assay relative to control; format: functional
[37] = system: BT-549; assay: Cytotoxicity against human BT549 cells after 48 hrs by sulforhodamine B assay; format: functional; details: BT-549, 48 h
[38] = system: OVCAR-4; assay: Cytotoxicity against human OVCAR4 cells after 48 hrs by sulforhodamine B assay; format: functional; details: OVCAR-4, 48 h
[39] = system: HCT-15; assay: Cytotoxicity against human HCT15 cells after 48 hrs by sulforhodamine B assay; format: functional; details: HCT-15, 48 h
[40] = read-out: LC50 (the source's name)

DNA topoisomerase 1 (Homo sapiens), sequence (P11387 whole entry): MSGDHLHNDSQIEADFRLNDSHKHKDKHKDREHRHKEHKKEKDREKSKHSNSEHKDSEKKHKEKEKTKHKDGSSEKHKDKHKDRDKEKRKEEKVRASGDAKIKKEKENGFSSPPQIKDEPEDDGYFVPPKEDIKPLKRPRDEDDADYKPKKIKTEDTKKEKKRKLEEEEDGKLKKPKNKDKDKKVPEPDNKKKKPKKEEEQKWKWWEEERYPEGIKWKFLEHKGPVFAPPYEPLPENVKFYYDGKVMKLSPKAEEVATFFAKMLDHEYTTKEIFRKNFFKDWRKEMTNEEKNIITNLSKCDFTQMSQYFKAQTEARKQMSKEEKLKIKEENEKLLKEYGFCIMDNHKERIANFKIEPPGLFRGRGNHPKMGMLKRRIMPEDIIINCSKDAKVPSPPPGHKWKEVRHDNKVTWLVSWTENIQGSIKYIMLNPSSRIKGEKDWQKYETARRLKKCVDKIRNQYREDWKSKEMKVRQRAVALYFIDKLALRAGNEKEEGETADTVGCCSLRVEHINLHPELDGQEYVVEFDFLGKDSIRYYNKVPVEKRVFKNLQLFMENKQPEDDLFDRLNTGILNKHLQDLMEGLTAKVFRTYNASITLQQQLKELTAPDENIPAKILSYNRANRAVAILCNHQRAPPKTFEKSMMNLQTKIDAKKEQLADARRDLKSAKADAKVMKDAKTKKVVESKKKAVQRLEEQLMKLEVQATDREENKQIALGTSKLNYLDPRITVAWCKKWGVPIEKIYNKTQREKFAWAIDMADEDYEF

CCCCNCC(=O)Nc1ccc2c(c1)C(=O)c1cc(NC(=O)CNCCCC)ccc1-2
Activity [1]: 93.22%
GI50 [2]: 2.54 µM
TGI [2]: 8.94 µM
CC50 [2, 40]: 30.6 µM
Activity [3]: 6.92%
GI50 [4]: 0.81 µM
TGI [4]: 2.18 µM
CC50 [4, 40]: 5.16 µM
Activity [5]: -91.02%
GI50 [6]: 1.6 µM
TGI [6]: 3.08 µM
CC50 [6, 40]: 5.94 µM
Activity [7]: -76.54%
Activity [8]: -73.24%
GI50 [9]: 2.43 µM
TGI [9]: 6.67 µM
CC50 [9, 40]: 24.1 µM
GI50 [10]: 1.39 µM
TGI [10]: 2.9 µM
CC50 [10, 40]: 6.02 µM
Activity [11]: 67.92%
GI50 [12]: 3.06 µM
TGI [12]: 10.6 µM
CC50 [12, 40]: 34.5 µM
GI50 [13]: 1.54 µM
TGI [13]: 2.95 µM
CC50 [13, 40]: 5.66 µM
Activity [14]: -4.84%
INH [15]: < 5 µM
Activity [16]: 10.48%
Activity [17]: -86.41%
GI50 [18]: 0.39 µM
TGI [18]: 1.56 µM
CC50 [18, 40]: 5.7 µM
GI50 [19]: 1.27 µM
TGI [19]: 2.64 µM
CC50 [19, 40]: 5.48 µM
GI50 [20]: 1.76 µM
TGI [20]: 3.26 µM
CC50 [20, 40]: 6.05 µM
Activity [21]: -5.44%
GI50 [22]: 1.76 µM
TGI [22]: 3.3 µM
CC50 [22, 40]: 6.18 µM
Activity [23]: 7.57%
Activity [24]: -52.59%
Activity [25]: -63.01%
GI50 [26]: 1.05 µM
TGI [26]: 2.34 µM
CC50 [26, 40]: 5.18 µM
Activity [27]: -27.12%
Activity [28]: -82.99%
GI50 [29]: 1.43 µM
TGI [29]: 3.37 µM
CC50 [29, 40]: 7.94 µM
GI50 [30]: 1.87 µM
TGI [30]: 3.37 µM
CC50 [30, 40]: 6.08 µM
Activity [31]: -51.72%
Activity [32]: -26.11%
Activity [33]: 67.76%
Activity [34]: -32.16%
GI50 [35]: 1.43 µM
TGI [35]: 2.82 µM
CC50 [35, 40]: 5.56 µM
Activity [36]: -87.04%
GI50 [37]: 2.05 µM
TGI [37]: 6.05 µM
CC50 [37, 40]: 24.6 µM
GI50 [38]: 2.06 µM
TGI [38]: 5.02 µM
CC50 [38, 40]: 15.9 µM
GI50 [39]: 1.26 µM
TGI [39]: 3.34 µM
CC50 [39, 40]: 8.89 µM
